Reference: ChEMBL document CHEMBL4483862, “Open-source discovery of chemical leads for next-generation chemoprotective antimalarials” (2018)
pIC50: −log10 of the molar value.

Test system: Plasmodium berghei
Assay: Luciferase/luciferin-expressing antifolate-resistant parasites were used to infect a culture of HepG2 cells that were pre-incubated with compounds. Infected hepatocytes emit light due to the luciferase reaction. Assay results are presented as the percent inhibition of light emission compared to control. […]
Format: functional
Details: sporozoite; for pIC50: read-out: LUCIFERASE INFECTION ASSAY - IC50; for IC90: read-out: LUCIFERASE INFECTION ASSAY - IC90

Compound | pIC50 | IC90
N#Cc1ccsc1NC(=O)c1ccc(Cl)c([N+](=O)[O-])c1 | < 5.00 | > 10 µM
COCCCNC(=O)Cc1ccc(S(=O)(=O)N2CCOCC2)s1 | < 5.00 | > 10 µM
Cc1ccc(N2C(=O)N(CC(=O)N3CCc4ccccc43)C(=O)C2C)cc1 (configuration not stated) | < 5.70 | > 2 µM
Cc1nc(-c2ccc3c(c2)CC(=O)N3C)cs1 | < 5.00 | > 10 µM
O=[N+]([O-])c1ccccc1N1CCN(Cc2nc3ccccc3s2)CC1 | < 5.00 | > 10 µM
CC1CCN(Cc2ccc(CNC(=O)CCn3cncn3)cc2)CC1 | < 5.00 | > 10 µM
O=C(Nc1ccccc1)c1ccccc1OCC(O)COCc1ccc(Cl)cc1 (configuration not stated) | < 5.00 | > 10 µM
COc1ccccc1NC(=O)Cc1noc(CNc2ccc(F)cc2C)n1 | < 5.00 | > 10 µM
Cc1ccc(Sc2ccc(NC(=O)C3CC(=O)N(C4CC4)C3)cc2)c(C)c1 (configuration not stated) | < 5.00 | > 10 µM
Cc1nc(SCC(=O)N2CCC(c3nc4ccccc4o3)CC2)c2c(C)c(C)sc2n1 | < 5.00 | > 10 µM
CN(C(=O)CCN1C(=O)CCC1=O)c1ccccc1 | < 5.00 | > 10 µM
Cc1nc2cc(NC(C)C(=O)Nc3ccc([N+](=O)[O-])cc3Cl)ccc2o1 (configuration not stated) | < 5.00 | > 10 µM
CCCc1noc(CCC(=O)Nc2nc3cc4c(cc3s2)OCCO4)n1 | < 5.00 | > 10 µM
CC1C(OC(=O)c2ccc(CS(C)(=O)=O)cc2)CC2CC1C2(C)C (configuration not stated) | < 5.00 | > 10 µM
O=C(Nc1cccnc1-n1cccn1)c1csc(-c2ccc(Cl)cc2)n1 | < 5.70 | > 2 µM
COc1ccc(OCCCN2CCN(C(=O)C34CC5CC(CC(C5)C3)C4)CC2)cc1 | < 5.00 | > 10 µM
COc1ccc(OCCSCc2cc(=O)n3c4c(sc3n2)CCCC4)cc1 | < 5.00 | > 10 µM
CC(C)C(=O)NC1CCCC(C)C1C (configuration not stated) | < 5.70 | > 2 µM
COc1ccccc1CNC(=O)CSc1nnc(-c2ccccc2)c2ccccc12 | < 5.00 | > 10 µM
CS(=O)(=O)c1ccc(N2CCCN(c3ccc(C(F)(F)F)cn3)CC2)c([N+](=O)[O-])c1 | < 5.00 | > 10 µM
COC(=O)c1c(CSc2nnnn2C)nc2ccccc2c1-c1ccccc1 | < 5.00 | > 10 µM
Cc1cccc(N2CCN(CC(=O)c3ccc[nH]3)CC2)c1C | < 5.00 | > 10 µM

Compound | pIC50 | IC90
Cc1sc(-c2ccco2)nc1C(=O)Nn1cnc2ccccc21 | < 5.00 | > 10 µM
N#Cc1ccc(F)c(CN2CCN(Cc3nc(-c4ccc(Cl)cc4)no3)CC2)c1 | < 5.00 | > 10 µM
O=C(Cn1[nH]c(=O)c2ccccc2c1=O)NCc1ccc(CN2CCOCC2)cc1 | < 5.00 | > 10 µM
Cc1c(C(=O)NCCc2ccc3c(c2)OCCO3)cnn1-c1ccc(Cl)cc1 | < 5.70 | > 2 µM
CCCc1cc(=O)nc(SCC(=O)NC(=O)c2ccc(C(C)(C)C)cc2)[nH]1 | < 5.00 | > 10 µM
CCCOc1ccccc1NC(=O)c1cnc2c(c1)c(=O)[nH]c(=O)n2C | < 5.00 | > 10 µM
O=C(c1ccc(O)cc1)C1CCN(C(=O)c2cccc(N3CCCC3=O)c2)CC1 | < 5.00 | > 10 µM
COCCN(Cc1nc(=O)c2ccccc2[nH]1)C(=O)C1=NN(c2ccccc2)C(c2ccccc2)C1 (configuration not stated) | < 5.00 | > 10 µM
CC(C)c1cccc(N2CC(C(=O)N3CCC(C(N)=O)CC3)CC2=O)c1 (configuration not stated) | < 5.00 | > 10 µM
CNC(=O)Cc1ccc(NC(=O)CCSC)cc1 | < 5.00 | > 10 µM
CC(C)c1cc(=O)oc2cc(OS(=O)(=O)c3cc(C(N)=O)n(C)c3)ccc12 | < 5.00 | > 10 µM
CCOc1ccc(S(=O)(=O)N2CCCCC2)cc1NC(=O)C1CC=CCC1 (configuration not stated) | < 5.00 | > 10 µM
Cn1c(Cc2ccccc2)ns/c1=N\C(=Nc1ccccc1)c1ccccc1 | < 5.00 | > 10 µM
NC(=O)c1ccc(C(F)(F)F)n(CC(=O)c2ccc3c(c2)OCCO3)c1=O | < 5.00 | > 10 µM
Cc1ccc(Cn2ncc3c(C(=O)Nc4ccc(C)c(F)c4)cc(C)nc32)cc1 | < 5.00 | > 10 µM
Cc1csc(=O)n1CC(=O)Nc1ccccc1C(=O)NCc1ccco1 | < 5.00 | > 10 µM
O=C(Cc1noc2ccccc12)Nc1ccc(C(=O)N2CCCC2)cc1 | < 5.00 | > 10 µM
CNc1snc(C)c1C(=O)NCC(C(C)C)N1CCc2ccccc2C1 (configuration not stated) | < 5.00 | > 10 µM
CN(Cc1ccccc1N1CCOCC1)C(=O)/C=C/c1c(Cl)nc2ccccn12 | < 5.00 | > 10 µM
CC(NC(=O)c1cn(C)c2ccccc12)c1ccccn1 (configuration not stated) | < 5.70 | > 2 µM
Cc1ccc(-c2cc(C(=O)NNC(=O)c3nn(C)c(=O)c4ccccc34)[nH]n2)cc1 | < 5.00 | > 10 µM
COc1ccccc1-c1nc(COC(=O)c2cccnc2SC)cs1 | < 5.00 | > 10 µM

Compound | pIC50 | IC90
CCCCn1nnnc1COC(=O)c1ccccc1Sc1ccccc1C#N | < 5.00 | > 10 µM
Cc1cc(C(=O)Cn2cnc3ccc([N+](=O)[O-])cc3c2=O)c(C)n1CC1COc2ccccc2O1 (configuration not stated) | < 5.00 | > 10 µM
O=C(NC1CC1)c1ccc(CN(C2CC2)S(=O)(=O)c2ccccc2F)cc1 | 5.89 | 1.51 µM
CCN(c1ccccc1)S(=O)(=O)c1ccc(Cl)c(C(=O)Nc2ccn(C)n2)c1 | < 5.00 | > 10 µM
O=c1nc(/C=C/c2cccc3cccnc23)[nH]c2sc3c(c12)CCCCC3 | < 5.00 | > 10 µM
Cc1occc1C(=O)N1CCN(C(=O)c2ccc3ccccc3c2)CC1 | < 5.70 | > 2 µM
CCOc1cc(C(=O)NC2CCCCCC2)ccc1OCc1cccnc1 | < 5.70 | > 2 µM
CN(Cc1nc(-c2ccccc2)c2ccccc2n1)Cc1nc(=O)c2ccccc2[nH]1 | < 5.00 | > 10 µM
Cc1nc2ccccc2n1CCNC(=O)N1CCN(c2ccc(C(F)(F)F)cc2[N+](=O)[O-])CC1 | < 5.00 | > 10 µM
CN(CCOc1ccccc1F)C(=O)c1cc(S(=O)(=O)N2CCCC2)c[nH]1 | < 5.70 | > 2 µM
CC(Nc1ccc(C(N)=O)cc1[N+](=O)[O-])C12CC3CC(CC(C3)C1)C2 (configuration not stated) | 5.26 | > 10 µM
O=C(NCCOc1ccccc1F)NCC1CC1 | < 5.00 | > 10 µM
Cn1c(CSc2nc3ccccc3s2)nn(CN2CCCc3ncccc32)c1=S | < 5.00 | > 10 µM
Cn1cccc1C(=O)NC(=O)COC(=O)CCNC(=O)c1ccc([N+](=O)[O-])cc1 | < 5.00 | > 10 µM
O=C(CCc1ccc(-c2ccccc2)o1)Nc1nc(CN2CCCCC2)cs1 | < 5.00 | > 10 µM
Cc1ncsc1CCOC(=O)c1cc(Cl)c2c(c1)OCCO2 | < 5.00 | > 10 µM
Cc1cc(C)cc(C(=O)/C=c2\[nH]c(=O)/c(=C\c3cccs3)s2)c1 | < 5.00 | > 10 µM
CCc1cc(=O)oc2cc(OCc3csc(N(C(C)=O)c4cccc(C)c4)n3)ccc12 | < 5.00 | > 10 µM
COc1cccc2c1N(S(=O)(=O)c1ccccc1C(F)(F)F)CCC2 | < 5.70 | > 2 µM
CC(C)c1ccc(CSc2nnc(CC3CCS(=O)(=O)C3)o2)cc1 (configuration not stated) | < 5.00 | > 10 µM
COc1ccc(CNC(=O)NC2CCCCCCC2)cn1 | < 5.00 | > 10 µM
Cc1ccccc1Nc1nc(N)nc(CSc2nc(=O)c3c(-c4cccs4)csc3[nH]2)n1 | < 5.00 | > 10 µM

Compound | pIC50 | IC90
CCCCNC(=O)NCCc1ccc2c(c1)OCCO2 | < 5.00 | > 10 µM
Cc1ccc(-c2nn(CN(C)CC(=O)NC(C)C)c(=S)n2C)cc1 | < 5.00 | > 10 µM
Cc1ccc(-c2nnc(SCC(=O)N3c4ccccc4OCC3c3ccccc3)[nH]2)cc1 (configuration not stated) | < 5.00 | > 10 µM
CNC(=O)c1ccc(C)c(C)c1 | < 5.00 | > 10 µM
Cc1cc(N2CCN(C(=O)C(C)Oc3ccc(F)cc3)CC2)nc(C(C)C)n1 (configuration not stated) | < 5.00 | > 10 µM
Cc1ccc(-n2nc(C)c(NC(=O)Cn3c(NCc4ccccc4)nc4ccccc43)c2C)cc1 | < 5.00 | > 10 µM
COc1ccc(-c2csc(CC(=O)NCc3ccccc3)n2)c(OC)c1 | < 5.00 | > 10 µM
NC(=O)C1Cc2ccccc2CN1S(=O)(=O)c1cccc2c1N=S=N2 (configuration not stated) | < 5.00 | > 10 µM
COc1cccc(-c2noc(COC(=O)c3ccc(C)s3)n2)c1 | < 5.00 | > 10 µM
Cc1ccc(C(=O)Nc2cccc(CNC(C)c3ccc(F)cc3F)c2)cc1 (configuration not stated) | < 5.00 | > 10 µM
Cc1nc2sccn2c1C(=O)c1ccc(NS(=O)(=O)c2cc(C(=O)O)n(C)c2)cc1 | < 5.00 | > 10 µM
CN(Cc1ccc(Br)s1)c1ncccc1C(N)=O | < 5.70 | > 2 µM
O=C1N(Cc2ccccc2)c2ccccc2C12Oc1ccc(Br)cc1-c1cc(-c3ccccc3)nn12 (configuration not stated) | 5.03 | > 10 µM
CCCn1c(NC(=O)C2CCN(c3ccc4nnc(C(F)(F)F)n4n3)CC2)nc2ccccc21 | 5.19 | > 10 µM
CC(=O)NCCNC(=O)c1ccc(OCC2CCCO2)cc1 (configuration not stated) | < 5.70 | > 2 µM
CCCNC(=O)COc1ccc(Nc2ccccc2)cc1 | < 5.00 | > 10 µM
CC(C)(C)c1ccc(/C=C/C(=O)NCc2ccc(NC(=O)C3CC3)cc2)cc1 | 5.62 | 6.63 µM
Cc1nn(-c2ccccc2)c(C)c1CC(=O)Nc1ccc2c(c1)OC(F)(F)O2 | < 5.00 | > 10 µM
CC(=O)Nc1ccc(S(=O)(=O)N(C)CC(=O)NCCC(=O)N2CCCC2)cc1 | < 5.00 | > 10 µM
CC1CC(C)CN(S(=O)(=O)N2CCN(c3ccc(C(F)(F)F)cc3[N+](=O)[O-])CC2)C1 (configuration not stated) | < 5.00 | > 10 µM
